Reference: US8519136B2, “Aminopyridine derivatives having aurora a selective inhibitory action” (MSD K.K., priority 2008, dated 2013)
Where a name gives a salt, the structure may show the parent alone.

Key:
[1] = molecular target: T1, His-tagged human Aurora A (Homo sapiens, UniProt O14965); experiment: Aurora A inhibitory activity (IMAP fluorescence polarization); assay type: biochemical; details: 20 μM ATP, 30° C., 120 minutes
T1 construct: His (N); made in house; host or cells: Escherichia coli BL21-CodonPlus(DE3)-RIL
T1 sequence (O14965 1-403): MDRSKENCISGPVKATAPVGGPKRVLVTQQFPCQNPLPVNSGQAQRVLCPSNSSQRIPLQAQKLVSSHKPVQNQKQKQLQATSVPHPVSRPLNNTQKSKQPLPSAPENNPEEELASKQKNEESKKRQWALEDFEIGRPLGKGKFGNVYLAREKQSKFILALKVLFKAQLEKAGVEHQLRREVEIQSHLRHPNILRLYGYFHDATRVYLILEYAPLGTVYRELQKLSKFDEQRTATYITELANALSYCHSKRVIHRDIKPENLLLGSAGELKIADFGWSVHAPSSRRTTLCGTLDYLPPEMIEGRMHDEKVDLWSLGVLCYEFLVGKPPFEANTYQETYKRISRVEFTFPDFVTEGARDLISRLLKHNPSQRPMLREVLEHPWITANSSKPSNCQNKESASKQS
Excerpt: cDNA of N-terminal His-tagged human Aurora A was integrated into an expression vector, which was then highly expressed in Escherichia coli BL21-CodonPlus(DE3)-RIL cells. The Escherichia coli was harvested and lysed, and then the His-tagged human Aurora A protein was applied onto a nickel chelate column and eluted from the column with imidazole. The active fractions were desalted with a desalting column to give a purified enzyme.
For measurement of the activity of Aurora A, the substrate used was a synthetic peptide (5-FAM (5-carboxyfluorescein)-γ-aminobutyric acid-Ala-Leu-Arg-Arg-Ala-Ser-Leu-Gly-NH2) (SEQ.ID.NO.: 1), which was purchased from Toray Research Center, Inc.
For the phosphorylation reaction, the method by Upstate, Inc. [Kinase Profiler™ Assay Protocols] was referred to, and phosphorylation of the substrate was detected using IMAP® technology (Molecular Devices, Co. Ltd.) (Gaudet E W. et. al, J. Biomol. Screen, 8, 164-175 (2003)). Concretely, the phosphorylation reaction and the detection were carried out as follows:
The phosphorylation reaction was conducted using 384 well plate, and the reaction volume was 10 μl/well. The reaction buffer is comprised of 50 mM Tris-chloride buffer (pH 7.4), 15 mM magnesium acetate, and 0.2 mM ethylenediamine-N,N,N′,N′-tetraacetic acid (EDTA). Thereto, the purified Aurora A protein, 100 nM of the peptide substrate, and 20 μM of adenosine 5′-triphosphate (ATP) were added, and then the reaction was carried out at 30° C. for 120 minutes.
Thereafter, in order to terminate and detect the reaction, 30 μl of the IMAP (registered trademark) binding reagent (IMAP Progressive Binding Reagent, R7284) that had been diluted (1:400) in the 1×IMAP binding buffer A (IMAP Progressive Binding Buffer A, 5× stock, R7282) was added to each well. The solution stood still for 60 minutes in the dark, and then fluorescence polarization was measured using a high-end microplate reader (excitation wavelength: 485 nm; emission wavelength: 520 nm).
(§1) The compound to be tested was added to the reaction system such that a dilution series of the compound in dimethylsulfoxide (DMSO) was prepared, and then 0.5 μL of this solution was added for the testing to each well. Each control well was provided by adding 0.5 μL of DMSO to the well in place of the DMSO solution containing the compound to be tested.

[2] = molecular target: T2, GST-tagged human Aurora B(AurB)/His-tagged human INCENP complex proteins (Homo sapiens, UniProt Q96GD4); experiment: Aurora B inhibitory activity (Method A, IMAP kit); assay type: biochemical; details: 40 μM ATP, 25° C., 45 minutes
T2 construct: GST; purchased Carna Biosciences, Inc
Procedure: An assay development kit for IMAP (registered trademark) (Aurora B), purchased from Carna Biosciences, Inc., was used for phosphorylation reaction, and the phosphorylation of a substrate was detected using the IMAP technology. The assay development kit used is comprised of an assay buffer, GST-tagged human Aurora B(AurB)/His-tagged human INCENP complex proteins (amino acid sequence: 803-916, AAU04398.1), and an ATP/substrate solution. Using the same, the phosphorylation reaction was conducted in accordance with a partially revised protocol attached to the kit, and then the phosphorylation of the substrate was detected using the IMAP technology.
For the phosphorylation reaction, 384 well plate was used, and the reaction volume was 10 μl/well. The composition of the reaction buffer (assay buffer) is comprised of 20 mM of HEPES buffer (pH 7.4), 0.01% Tween-20, and 2 mM of dithiothreitol (DTT). Thereto, AurB/INCENP complex protein, 100 nM of the substrate, and 40 μM of ATP, and 1 mM of magnesium salt were added, and then the reaction was conducted at 25° C. for 45 minutes. Thereafter, in order to terminate and detect the reaction, 30 μl of the IMAP (registered trademark) binding reagent (IMAP Progressive Binding Reagent, R7284) that had been diluted (1:400) in the 1×IMAP binding buffer A (IMAP Progressive Binding Buffer A, 5× stock, R7282) was added to each well. The solution stood still for 60 minutes in the dark, and then fluorescence polarization was measured using a high-end microplate reader (excitation wavelength: 485 nm; emission wavelength: 520 nm).
as §1, with “DMSO” for “dimethylsulfoxide (DMSO)”

T2 sequence (Q96GD4 whole entry): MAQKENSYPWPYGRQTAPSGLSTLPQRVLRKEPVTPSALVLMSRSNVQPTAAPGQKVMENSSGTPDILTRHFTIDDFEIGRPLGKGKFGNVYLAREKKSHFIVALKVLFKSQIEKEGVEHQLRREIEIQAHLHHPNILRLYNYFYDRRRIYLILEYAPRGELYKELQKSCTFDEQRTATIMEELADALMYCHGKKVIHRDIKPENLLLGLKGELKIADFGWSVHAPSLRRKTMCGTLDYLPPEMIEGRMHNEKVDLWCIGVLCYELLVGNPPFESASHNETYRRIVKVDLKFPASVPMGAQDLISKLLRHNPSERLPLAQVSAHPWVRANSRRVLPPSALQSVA
T2 sequence (Q9NQS7 803-916 partner limits assumed): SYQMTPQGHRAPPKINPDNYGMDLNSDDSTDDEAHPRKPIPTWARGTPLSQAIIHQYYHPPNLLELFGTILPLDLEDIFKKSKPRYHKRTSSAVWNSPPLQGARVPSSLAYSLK

IC50 [1] | IC50 [2] | Compound
0.91 nM | 369 nM | Cl.O=C(c1cccc(Cl)c1F)N1CCC(O)(Cc2cccc(Nc3cc[nH]n3)n2)CC1 [Example 2, 1-(3-chloro-2-fluorobenzoyl)-4-((6-(1H-pyrazol-3-ylamino)pyridin-2-yl)methyl)piperidin-4-ol hydrochloride]
0.4 nM | > 1000 nM | O=c1[nH]nc(C2(Cc3cccc(Nc4cc[nH]n4)n3)CCN(S(=O)(=O)c3ccccc3C(F)(F)F)CC2)o1 [Example 14, 5-(4-((6-(1H-pyrazol-3-ylamino)pyridin-2-yl)methyl)-1-((2-(trifluoromethyl)phenyl)sulfonyl)piperidin-4-yl)-1,3,4-oxadiazol-2(3H)-one trifluoroacetate]

Compound | IC50 [1] | IC50 [2]
O=c1[nH]nc(C2(Cc3cccc(Nc4cc[nH]n4)n3)CCN(C(c3cccc(C(F)(F)F)c3)C(F)(F)F)CC2)o1 (stereo not drawn) [Example 19, 5-(4-((6-(1H-pyrazol-3-ylamino)pyridin-2-yl)methyl)-1-(2,2,2-trifluoro-1-(3-(trifluoromethyl)phenyl)ethyl)piperidin-4-yl)-1,3,4-oxadiazol-2(3H)-one trifluoroacetate] | 1.27 nM | > 1000 nM
